Source: US20260109695A1, “PEROXIREDOXIN 3 INHIBITORS AND METHODS OF USE FOR TREATING CANCER” (WAKE FOREST UNIVERSITY HEALTH SCIENCES, priority 2022, published 2026)
Values after ≈ are worked out from the molar mass of the structure shown.

Assays:
[1] = tested on: human SK-OV-3 ovarian cancer cells; assay: Cellular Activity Assay (cytotoxicity, crystal violet); type: cell-based; conditions: SK-OV-3 cells, 48 hr treatment
Excerpt: (§1) To test the activity of compounds, two complimentary assays were used as described below. The Biochemical PRX3 Inhibition Assay tests the ability of each compound to crosslink PRX3 in a simple, in vitro system. In the Cellular Activity Assay, we are testing the ability of compounds to kill SK-OV-3 ovarian cancer cells.
The Cellular Activity Assay measures the EC50 of each compound in human SK-OV-3 ovarian cancer cells TS to be taken into the cell, transported to the mitochondria, and crosslink PRX3.
The cytotoxicity of compounds was measured as described in Nelson et al. (2021) Antioxidants (Basel) 10, 150; Cunniff et al. (2015) PloS one 10, e0127310; and Newick et al. (2012) PloS one 7, e39404. SK-OV-3 is an adherent, epithelial, adenocarcenoma cell line obtained from ATCC (ref #: HTB-77). SK-OV-3 cells are resistant to the commonly used chemotherapeutics, cis-platinum and doxorubicin. For this PRX3 crosslinking assay, SK-OV-3 cells were plated in a 96-well plate. After 24 h recovery, the cells were treated for 48 hr with multiple concentrations of each compound ranging from 0.1-100 μM.
Cells were washed with PBS to remove dead cells and the remaining live cells were fixed with 3.0% formaldehyde and stained with 0.1% crystal violet. The amount of crystal violet was determined by reading the absorbance at 540 nm (crystal violet dye dissolved in 100% methanol) using a plate reader. The signal for crystal violet dye is proportional to the biomass of remaining live cells. GraphPad Prism9 software was used to calculate the effective inhibitory concentration (EC50) of test compounds. Results for each compound, are normalized to the amount of cells in control wells treated with the equivalent concentration of DMSO (negative control). TS or Compound B were included in each set of assays as a positive control.

purified human PRX3 = biological target: T1, purified human PRX3 (Homo sapiens, UniProt P30048); assay: Biochemical PRX3 Inhibition Assay (crosslink by SDS-PAGE, mono-adduct by MALDI-TOF MS); conditions: 1-2 hr at 37° C.
T1 construct: made in house
T1 sequence (P30048 62-256): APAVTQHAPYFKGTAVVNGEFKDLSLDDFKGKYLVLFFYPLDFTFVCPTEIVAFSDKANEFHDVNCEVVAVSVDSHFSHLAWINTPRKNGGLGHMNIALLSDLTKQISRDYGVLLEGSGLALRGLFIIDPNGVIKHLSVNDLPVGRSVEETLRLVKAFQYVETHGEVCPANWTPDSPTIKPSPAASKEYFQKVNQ
Description: as §1
This assay tests the ability of each compound to form a covalent adduct with PRX3. The assay is performed as described in Nelson et al. (2021) Antioxidants (Basel) 10, 150; and Cunniff et al. (2015) PloS one 10, e0127310, and follows the appearance of non-reducible PRX3 crosslinks by SDS PAGE gel electrophoresis and follows the appearance of single PRX3 adducts by mass spectrometry. For this assay, purified human PRX3, hydrogen peroxide (the PRX3 substrate) and all the components required to enable PRX3 to catalytically cycle (thioredoxin-thioredoxin reductase-NAPDH system) are included (details below).
The biochemical PRX3 Inhibition assay contains 100 µM PRX3, 50 µM human TRX2, […] mouse thioredoxin reductase, and a NADPH regenerating system composed of 3.2 mM glucose 6-phosphate, 3.2 U/ml glucose 6-phosphate dehydrogenase and 0.4 mM NADPH. Samples are incubated for 1-2 hr at 37° C. with either 0.2 mM TS (positive control), compounds or an equivalent volume of DMSO (negative control). During this incubation, hydrogen peroxide is added to induce turnover of PRX3. Reactions are stopped by the addition of a buffer containing 100 mM dithiolthreitol (to break disulfide bonds) and SDS (detergent to denature proteins). NADPH, Glucose 6-Phosphate, and glucose 6-phosphate dehydrogenase were purchased from Sigma Aldrich. PRX3, thioredoxin, and thioredoxin reductase were all purified to >98% purity in the Lowther laboratory according to protocols referenced in Nelson et al. (2021) Antioxidants (Basel) 10, 150; and Cunniff et al. (2015) PloS one 10, e0127310.
To measure the amount of PRX3 crosslink, proteins in the reaction were separated by SDS-polyacrlyamide gel electrophoresis and stained for total protein using GelCode Blue (Life Technologies). The amount of unmodified PRX3 and TS-PRX3 crosslink was measured by densiometric analysis of the signal for the PRX3 band running at the MW of a PRX3 crosslink (−46 kDa) compared to the PRX3 signal at the MW of the un-modified PRX3 (˜23 kD).
To measure covalent adduct formation on a single PRX3 monomer, each reaction was exchanged into a mass spectrometry compatible buffer containing 40 mM ammonium citrate, pH 8.3 made in HPLC water. Sample was mixed 1:1 with a matrix solution containing 30 mg/mL sinapinic acid in 70% (vol/vol) acetonitrile, 0.2% formic acid and spotted to onto the sample plate. PRX3 mass was measured by MALDI-TOF MS analysis on a Bruker Daltonics MALDI-TOF MS spectrometer. Spectra were analyzed in FLEXAnalysis Software. The intensity of the reduced PRX3 peak (SH) and intensity of the analog adduct peak was determined and corrected for background signal at the adduct peak in the DMSO control. The fraction of single analog adduct in the monomer peak was determined by dividing the intensity of the adduct peak by the summed intensity of the SH and adduct peaks.

Solubility Assay = type: physicochemical; conditions: 100 mM NaCl buffer, aqueous with cosolvent or surfactant or cyclodextrin, kinetic from dmso stock, 20 mM HEPES, pH 7.5, 18-24 hours at ambient temperature, read-out: Solubility
Description: A 20 mM stock solution was made for each compound in DMSO. To measure solubility, 0.03-0.05 mL of the stock was added to 0.27 mL 20 mM HEPES, 100 mM NaCl, pH 7.5. The solution was mixed and rotated 18-24 hours at ambient temperature. The next day, solutions were centrifuged for 10 min at 20,000×g at 24° C. to remove insoluble, solid material. Next, 100 μL of the supernatant containing the soluble compound was added to 900 μL DMSO and High Performance Liquid Chromatography was performed as described in Table 1 and either HPLC gradient 1 (Table 2) for HPLC gradient 2 (Table 3). For each analog, a 200 μM standard and a 20 μM standard were prepared and run in parallel (standards were dissolved completely in 100% DMSO). The amount of compound in the experimental sample was calculated by comparing the area under the curve for compound peak to the area for the closest standard and correcting for dilution.

[2] = tested on: Enterococcus hirae (ATCC #10541); assay: Antimicrobial Activity Assay; type: cell-based; conditions: Enterococcus hirae, minimal inhibitory concentration; for MIC: ATCC10541, read-out: Antimicrobial Activity
Description: The overnight growth was then diluted into growth media to make a single solution of E. hirae with a final optical density at 600 nm=0.02 AU. A 20 mM stock solution of Thiostrepton in DMSO was made and used to make multiple dilutions of TS in DMSO. Each TS dilution (0.1 mL) was then added to a test tube containing 10 mL of the diluted E. hirae and grown at 37° C. overnight while shaking at 180 rpm. The next morning, each tube was visually inspected to determine if the cells grew. Final concentrations tested were 0.120, 0.090, 0.075, 0.060, 0.045, 0.030, and 0.015 μM TS. […] Three replicates were made on three separate days (n=9). […] For TS analogs, the dilute E. hirae was treated with 20 µM final concentration of each analog (three replicates each). […] DMSO was used as a positive control (complete cell growth) and 20 µM thiostrepton was used as a negative control.

Row | Compound | EC50 [1] [µM] | PRX3 Inhibition (Crosslink + Mono-adduct) (purified human PRX3) | solubility (Solubility Assay) [µM] | MIC [2] [µM] | Antimicrobial Activity [2]
1 | C=C(NC(=O)c1csc(N2CCC(NC(=O)OC(C)(C)C)CC2)n1)C(=O)NC(=C)C(=O)N1CCCCC1 [Compound 1, Tert-butyl (1-(4-((3-oxo-3-((3-oxo-3-(piperidin-1-yl)prop-1-en-2-yl)amino)prop-1-en-2-yl)carbamoyl)thiazol-2-yl)piperidin-4-yl)carbamate] | 10 to 25 | +++ (>90%) | < 100 | > 20 | 
2 | C=C(NC(=O)c1csc(N2CCC(NC(=O)OC(C)(C)C)CC2)n1)C(=O)NC(=C)C(=O)OCc1ccccc1 [Compound 2, Benzyl 2-(2-(2-(4-((tert-butoxycarbonyl)amino)piperidin-1-yl)thiazole-4-carboxamido)acrylamido)acrylate] | 1 to 10 | ++ (50-90%) | < 100 | > 20 | 
3 | C=C(NC(=O)c1csc(N2CCC(NC(=O)OC(C)(C)C)CC2)n1)C(=O)NC(=C)C(=O)OCCOC [Compound 3, 2-Methoxyethyl 2-(2-(2-(4-((tert-butoxycarbonyl)amino)piperidin-1-yl)thiazole-4-carboxamido)acrylamido)acrylate] | 10 to 25 | +++ (>90%) | 100 to 1000 (≈ 52.4 to 524 µg/mL) | > 20 | 
4 | C=C(NC(=O)C(=C)NC(=O)c1csc(N2CCC(NC(=O)OC(C)(C)C)CC2)n1)C(=O)NCCOC [Compound 4, Tert-butyl (1-(4-((3-((3-((2-methoxyethyl)amino)-3-oxoprop-1-en-2-yl)amino)-3-oxoprop-1-en-2-yl)carbamoyl)thiazol-2-yl)piperidin-4-yl)carbamate] | 10 to 25 | +++ (>90%) | 100 to 1000 (≈ 52.3 to 523 µg/mL) | > 20 | 
5 | C=C(NC(=O)c1csc(N2CCC(NC(=O)OC(C)(C)C)CC2)n1)C(=O)NC(=C)C(=O)OC1CCOCC1 [Compound 5, Tetrahydro-2H-pyran-4-yl 2-(2-(2-(4-((tert-butoxycarbonyl)amino)piperidin-1-yl)thiazole-4-carboxamido)acrylamido)acrylate] | 1 to 10 | +++ (>90%) | < 100 | > 20 | 
6 | C=C(NC(=O)c1csc(N2CCC(NC(=O)OC(C)(C)C)CC2)n1)C(=O)NC(=C)C(=O)OCC1CCOCC1 [Compound 6, (Tetrahydro-2H-pyran-4-yl)methyl 2-(2-(2-(4-((tert-butoxycarbonyl)amino)piperidin-1-yl)thiazole-4-carboxamido)acrylamido)acrylate] | 1 to 10 | +++ (>90%) | < 100 | > 20 | 
7 | C=C(NC(=O)c1csc(N2CCC(NC(=O)OC(C)(C)C)CC2)n1)C(=O)NC(=C)C(=O)N(C)CCOC [Compound 7, Tert-butyl (1-(4-((3-((3-((2-methoxyethyl)(methyl)amino)-3-oxoprop-1-en-2-yl)amino)-3-oxoprop-1-en-2-yl)carbamoyl)thiazol-2-yl)piperidin-4-yl)carbamate] | 25 to 100 | +++ (>90%) | 100 to 1000 (≈ 53.7 to 537 µg/mL) | > 20 | 
8 | C=C(NC(=O)c1csc(N2CCC(NC(=O)OC(C)(C)C)CC2)n1)C(=O)NC(=C)c1nnc(C2CCOCC2)o1 [Compound 8, Tert-butyl (1-(4-((3-oxo-3-((1-(5-(tetrahydro-2H-pyran-4-yl)-1,3,4-oxadiazol-2-yl)vinyl)amino)prop-1-en-2-yl)carbamoyl)thiazol-2-yl)piperidin-4-yl)carbamate] | 10 to 25 | +++ (>90%) | < 100 | > 20 | 
9 | C=C(NC(=O)c1csc(N2CCC(NC(=O)OC(C)(C)C)CC2)n1)C(=O)NC(=C)C(=O)OC [Compound A, Methyl 2-(2-(2-(4-((tert-butoxycarbonyl)amino)piperidin-1-yl)thiazole-4-carboxamido)acrylamido)acrylate, reference compound] |  |  | < 100 |  | − (>20 μM)
10 | C=C(NC(=O)c1csc(-c2ccc(NC(=O)CCCCCBr)cc2)n1)C(=O)NC(=C)C(=O)OC [Compound B, Methyl 2-(2-(2-(4-(6-bromohexanamido)phenyl)thiazole-4-carboxamido)acrylamido)acrylate, reference compound] |  |  | < 100 |  | 
